Structures are written as SMILES.

From US8846570B2, “Herbicidal compositions comprising 4-amino-3-chloro-5-fluoro-6-(4-chloro-2-fluoro-3-methoxyphenyl)pyridine-2-carboxylic acid or a derivative thereof and microtubule inhibiting herbicides” (Dow AgroSciences LLC, priority 2012, dated 2014) come the findings set out here.

What all share (test): In-water applied, transplanted paddy rice, greenhouse: visual weed control
What all share (format): in vivo
Holding throughout (settings): 21 DAA

The test system of test [1] is Leptochloa chinensis (L.) Nees (LEFCH). The protocol:
(§1) Weed seeds or nutlets of the desired test plant species were planted in puddled soil (mud) prepared by mixing a shredded, non-sterilized mineral soil (50.5 percent silt, 25.5 percent clay, and 24 percent sand, with a pH of about 7.6 and an organic matter content of about 2.9 percent) and water at a 1:1 volumetric ratio. The prepared mud was dispensed in 365 mL aliquots into 16-ounce (oz.) non-perforated plastic pots with a surface area of 86.59 square centimeters (cm^2) leaving a headspace of 3 centimeters (cm) in each pot. Mud was allowed to dry overnight prior to planting or transplanting. Rice seeds were planted in Sun Gro MetroMix® 306 planting mixture, which typically has a pH of 6.0 to 6.8 and an organic matter content of about 30 percent, in plastic plug trays. Seedlings at the second or third leaf stage of growth were transplanted into 860 mL of mud contained in 32-oz. non-perforated plastic pots with a surface area of 86.59 cm^2 4 days prior to herbicide application. The paddy was created by filling the headspace of the pots with 2.5 to 3 cm of water. When required to ensure good germination and healthy plants, a fungicide treatment and/or other chemical or physical treatment was applied. The plants were grown for 4-22 days in a greenhouse with an approximate 14 h photoperiod which was maintained at about 29° C. during the day and 26° C. during the night. Nutrients were added as Osmocote® (19:6:12, N:P:K+minor nutrients) at 2 g per 16.-oz. pot and 4 g per 32-oz. pot. Water was added on a regular basis to maintain the paddy flood, and supplemental lighting was provided with overhead metal halide 1000-Watt lamps as necessary. The plants were employed for testing when they reached the first through fourth true leaf stage.
(§2) Treatments consisted of the acid or esters of 4-amino-3-chloro-5-fluoro-6-(4-chloro-2-fluoro-3-methoxy-phenyl)pyridine-2-carboxylic acid (compound A) each formulated as an SC and various herbicidal components alone and in combination. Forms of compound A were applied on an acid equivalent basis.
(§3) Treatment requirements for each compound or herbicidal component were calculated based upon the rates being tested, the concentration of active ingredient or acid equivalent in the formulation, an application volume of 2 mL per component per pot, and an application area of 86.59 cm^2 per pot.
(§4) For formulated compounds, a measured amount was placed in an individual 100 or 200 mL glass vial and was dissolved in a volume of 1.25% (v/v) Agri-Dex® crop oil concentrate to obtain application solutions.
(§5) For technical grade compounds, a weighed amount was placed in an individual 100 to 200 mL glass vial and was dissolved in a volume of acetone to obtain concentrated stock solutions. […] The concentrated stock solutions obtained were diluted with an equivalent volume of an aqueous mixture containing 2.5% (v/v) crop oil concentrate so that the final application solutions contained 1.25% (v/v) crop oil concentrate.
(§6) Applications were made by injecting, with a pipetter, appropriate amounts of the application solutions into the aqueous layer of the paddy. Control plants were treated in the same manner with the solvent blank. Applications were made so that all treated plant material received the same concentrations of acetone and crop oil concentrate.
(§7) The treated plants and control plants were placed in a greenhouse as described above and water was added as needed to maintain a paddy flood. After approximately 3 weeks the condition of the test plants as compared with that of the untreated plants was determined visually and scored on a scale of 0 to 100 percent where 0 corresponds to no injury or growth inhibition and 100 corresponds to complete kill.
(§8) Colby's equation was used to determine the herbicidal effects expected from the mixtures (Colby, S. R. 1967. Calculation of the synergistic and antagonistic response of herbicide combinations. Weeds 15:20-22.). […]

In test [2] the test system is Schoenoplectus Maritimes (L.) Lye (SCPMA). How it is done: as §1, §2, §3, §4, §5, §6, §7, §8
For test [3], the system named is Echinochloa crus-galli (L.) Beauv. (ECHCG). The protocol: as §1, §2, §3, §4, §5, §6, §7, §8
Test [4] relates to Echinochloa oryzoides (Ard.) Fritsch (ECHOR). How it is done: as §1, §2, §3, §4, §5, §6, §7, §8

Take `CCC(CC)Nc1c([N+](=O)[O-])cc(C)c(C)c1[N+](=O)[O-]` [Pendimethalin, N-(1-ethylpropyl)-3,4-dimethyl-2,6-dinitrobenzenamine, reference compound]: the “Visual Weed Control (%) Obs” value in test [1] (280 g ai/ha) amounted to 40%; in test [1] (1120 g ai/ha), 48%; in test [2] (560 g ai/ha), 0%; in test [3] (280 g ai/ha), 20%; in test [3] (560 g ai/ha), 0%.

Take `COc1c(Cl)ccc(-c2nc(C(=O)OCc3ccccc3)c(Cl)c(N)c2F)c1F` [Compound A Benzyl Ester, benzyl ester of 4-amino-3-chloro-5-fluoro-6-(4-chloro-2-fluoro-3-methoxy-phenyl)pyridine-2-carboxylic acid]: the “Visual Weed Control (%) Obs” value in test [1] (35 g ae/ha) worked out at 50%; in test [1] (70 g ae/ha), 50%; in test [2] (4.38 g ae/ha), 0%; in test [2] (8.75 g ae/ha) it was 0%; in test [2] (17.5 g ae/ha) it was 0%; in test [3] (4.38 g ae/ha) it was 0%. Moreover, the “Visual Weed Control (%) Obs” value is reported as 0% in test [3] (8.75 g ae/ha); 25% in test [3] (17.5 g ae/ha); 40% in test [4] (4.38 g ae/ha); 60% in test [4] (8.75 g ae/ha); 75% in test [4] (17.5 g ae/ha).

In the case of `COc1c(Cl)ccc(-c2nc(C(=O)O)c(Cl)c(N)c2F)c1F` [Compound A Acid, 4-amino-3-chloro-6-(4-chloro-2-fluoro-3-methoxyphenyl)-5-fluoropyridine-2-carboxylic acid], the “Visual Weed Control (%) Obs” value in test [1] (8.75 g ae/ha) was 0%; in test [1] (17.5 g ae/ha), 0%; in test [1] (35 g ae/ha), 30%; in test [2] (8.75 g ae/ha) it was 0%; in test [2] (17.5 g ae/ha) it was 0%; in test [2] (35 g ae/ha) it was 0%. In addition, the “Visual Weed Control (%) Obs” value came to 0% in test [3] (8.75 g ae/ha); 0% in test [3] (17.5 g ae/ha); 20% in test [3] (35 g ae/ha); 10% in test [4] (8.75 g ae/ha); 40% in test [4] (17.5 g ae/ha); 40% in test [4] (35 g ae/ha).

In the case of `CSC(=O)c1c(C(F)F)nc(C(F)(F)F)c(C(=O)SC)c1CC(C)C` [Dithiopyr, S,S′-dimethyl-2-(difluoromethyl)-4-(2-methylpropyl)-6-(trifluoromethyl)-3,5-pyridinedicarbothioate], the “Visual Weed Control (%) Obs” value came to 0% in test [2] (70 g ai/ha) and 30% in test [4] (70 g ai/ha).
